We go through 2 molecules from PMC8748766, “The catalytic activity of TCPTP is auto-regulated by its intrinsically disordered tail and activated by Integrin alpha-1” (Nature Communications, 2022).

In one assay the test system is TCPTP. The following applies: via the cytoplasmic tail of ITGA1; cited from earlier work.
Assay [1] deals with T1, TCPTPCAT (residues 1-288) (human, UniProt P17706-2 1-288).
T1 construct: T cell protein tyrosine phosphatase (TCPTP, PTPN2), human, TC45 isoform, catalytic domain residues 1-288, cloned into pMCSG7; used for cross-linking in trans; source: E. coli BL21 (DE3) RIL, purified (His-trap, TEV cleavage, subtraction, SEC); not shown: His6, N-terminal, cleaved
T1 sequence (looked up): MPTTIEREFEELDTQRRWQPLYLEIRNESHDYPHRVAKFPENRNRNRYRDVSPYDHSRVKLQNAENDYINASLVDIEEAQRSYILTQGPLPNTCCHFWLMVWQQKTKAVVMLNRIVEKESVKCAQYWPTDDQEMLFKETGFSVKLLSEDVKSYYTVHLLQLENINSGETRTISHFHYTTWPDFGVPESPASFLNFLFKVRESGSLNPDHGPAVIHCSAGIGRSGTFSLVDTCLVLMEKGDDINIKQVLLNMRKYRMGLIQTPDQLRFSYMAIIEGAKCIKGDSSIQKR
In words: cross-linking; in trans: TCPTPCAT (1-288) 0.75 μM with TCPTP_Tail (289-387) 75 or 150 μM (1:100 and 1:200), BS3 or DSSO 0 to 1000 μM, 25 mM Hepes pH 7.4, 50 mM NaCl, room temperature 1 h; band cut from SDS-PAGE, LC-MS or LC-MSn. The settings on record: both partners purified.

For the molecule “integrin α1: collagen-binding integrin α1 (ITGA1)”, the “activation of full-length TCPTP” value in the assay on TCPTP is on record as “activate full-length TCPTP”.

B1: TCPTP_(Tail) (residues 289-387) (domain or fragment, human, UniProt P17706-2 289-387, looked up)
chain: WKELSKEDLSPAFDHSPNKIMTEKYNGNRIGLEEEKLTGDRCTGLSSKMQDTMEENSESALRKRIREDRKATTAQKVQQMKQRLNENERKRKRPRLTDT
notes: T cell protein tyrosine phosphatase (TCPTP, PTPN2), human, TC45 isoform, C-terminal tail residues 289-387, cloned into pMCSG7; used for cross-linking in trans; source: E. coli BL21 (DE3) RIL, purified (His-trap, TEV cleavage, subtraction, heat step 80 °C 10 min, SEC); not shown: His6, N-terminal, cleaved
As to B1, the binding result in assay [1] is “binds”.
